The values below come from US5945125A, “Controlled release tablet” (Temple University, priority 1996, dated 1999).

≈ marks a conversion by molar mass, not a printed value. Entries after “also recorded” stand apart in the source; their conditions may differ. Where a name gives a salt, the structure may show the parent alone. Read-outs that look alike come from different tables or passages of the source.

Data set [1] in a line: In vitro release of drugs from tablets (USP basket procedure, water, 100 rpm, 37° C.). The data set is classed as physicochemical. Conditions: for constancy of release: PEO tablets of MW 0.9×10^6, 2×10^6, 4×10^6 (FIGS. 9-14); for effect of drug loading on release: PEO tablets, different drug loadings. Here is the method: A set of tablet punches with flat surfaces were used to prepare tablets of various diameters, including 7 mm, 8.1 mm, 9.5 mm, and 11 mm. They were charged with the formulation, and the compression of 2000 to 4000 pounds was exerted by turning over the machine by hand.
In vitro release of drugs from the different formulation tablets was carried out by using the USP basket procedure in distilled/deionized water at a stirring rate of 100 rpm and 37° C., if not otherwise stated. Theophylline and diltiazem HCl were chosen as model drugs. The release of theophylline and diltiazem HCl was assayed by a HP.backslash.8252A (Hewlett Packard Corporation) diode-array spectrophotometer at 244 nm and 266 nm, respectively. The release kinetic data (up to 60% release) were treated by equation (1) above.
According to the criteria for release kinetics from a swellable matrix (cylindrical shape), zero-order and anomalous transport kinetics are represented by 0.89 <n<1.0 and 0.45<n<0.89, respectively. A linear regression analysis (Microsoft Excel 5.0) of the logarithmic form of equation (1) was carried out with R^2 ≥0.99.
A set of tablet punches with flat surfaces were used to prepare the tablets having diameters of 11.1 mm and weights of 550 mg except for the sulfathiazole tablets which were 9.5 mm in diameter and weighed 400 mg. All the tablets were compressed to 4000 pounds.
Similarly, FIGS. 10, 12 and 14 show particular drugs used for testing with their typical solubilities. A set of tablet punches with flat surfaces were used to prepare the tablets having diameters of 11.1 mm and weights of 550 mg except for the sulfathiazole tablets which were 9.5 mm in diameter and weighed 400 mg. The tablets were compressed to 4000 pounds.
A set of tablet punches with flat surfaces were used to prepare the tablets having diameters of 11.1 mm and weights of 550 mg except for the sulfathiazole tablets, which were 9.5 mm in diameter and weighed 400 mg. All the tablets were compressed to 4000 pounds per square inch.

The conditions of data set [2]: cited from earlier work.
The mark [3] stands for this setting: PEO MW 4×10^6, 20% drug loading.
The mark [4] stands for this setting: PEO MW 4×10^6, 39% drug loading.

Consider `O=C(O)Cc1ccccc1Nc1c(Cl)cccc1Cl` [diclofenac sodium], for which the “n (release kinetics exponent)” value in data set [1] (PEO MW 0.9×10^6, 20% drug loading (FIG. 31)) amounted to 0.93. Besides, in data set [1] (PEO MW 4×10^6, 39% drug vs 20% drug and 19% lactose, same total weight (FIG. 6)), the “effect of lactose on release kinetics” value is given as “superimposable (except for the final stage of release); also recorded: superimposable (except in the final stage of release)”. Moreover, in data set [1], the constancy of release entry is given as “least constant release; also recorded: constant or near constant release kinetics” and the “effect of drug loading on release” value is “did not significantly change”.
Turning to `COc1ccc([C@@H]2Sc3ccccc3N(CCN(C)C)C(=O)[C@@H]2OC(C)=O)cc1` [diltiazem HCl, diltiazem hydrochloride], the solubility in data set [2] (in water) was above 50%.
With `O=C(O)c1ccccc1O` [salicylic acid], the “release at which profiles from 20% and 39% loaded tablets cross” value in data set [1] (PEO MW 2×10^6 (FIG. 31)) is listed as “about 50%”. In addition, the “release kinetics exponent n” value in data set [1] (setting [3]) turned out to be 0.72; in data set [1] (setting [4]), 0.81. The constancy of release result in data set [1] is “Constant release rates over the longest period of time”.
With `Nc1ccc(S(=O)(=O)Nc2ncccn2)cc1` [sulfadiazine], in data set [1], the constancy of release entry is listed as “most constant release over the longest period of time”.
Regarding `Nc1ccc(S(=O)(=O)Nc2ccccn2)cc1` [sulfapyridine], in data set [1] (PEO MW 4×10^6 (FIG. 14)), the period of release result is on record as “relatively short” and the “release kinetics exponent n” value was found to be 1.10. The “effect of 39% versus 20% drug loading on release profile” value in data set [1] (PEO tablets (FIG. 31)) is reported as “shifted to the left of the release profiles from 20% loaded tablets”.
Consider `Nc1ccc(S(=O)(=O)Nc2nccs2)cc1` [sulfathiazole], for which, in data set [1] (PEO MW 4×10^6 (FIG. 31)), the “release at which profiles from 20% and 39% loaded tablets cross” value is on record as “about 50%”. For the same molecule, the “release kinetics exponent n” value in data set [1] (setting [3]) came out at 0.78; in data set [1] (setting [4]) it was 0.94. Moreover, the “shape of release profile” value in data set [1] (PEO tablets (FIGS. 10, 12, 14)) is given as “slightly sigmoidal profile”. Also, the constancy of release entry in data set [1] was “Constant release rates over the longest period of time”. Moreover, the solubility in data set [2] was 590 mg/L (≈ 2310 µM).
As for `Cn1c(=O)c2[nH]cnc2n(C)c1=O` [theophylline], the entries for the “release exponent (n)” value in data set [1] (PEO MW 0.9×10^6 tablet (FIG. 2)), in data set [1] (PEO MW 2×10^6 tablet (FIG. 2)) and in data set [1] (PEO MW 4×10^6 tablet (FIG. 2)) were 0.99 (±0.024), 0.80 (±0.004) and 0.83 (±0.019), respectively. The “effect of pH of dissolution medium on release” value in data set [1] (PEO tablets (FIG. 3)) is “not significantly influenced by the pH variation”. The constancy of release result in data set [1] is recorded as “least constant release; also recorded: constant or near constant release kinetics”. In data set [1], the “effect of drug loading on release” value was “superimposed”. Further, the solubility in data set [2] (in water) is below 1.0%.
